Experimental data reported in US20220281848A1, “PYRAZOLE-SUBSTITUTED PYRROLIDINONES AS HERBICIDES” (FMC Corporation, priority 2019, published 2022).

How the values were obtained:
Format in all cases: in vivo
[1] = tested on: giant foxtail (Setaria faberi, SETFA); test: Test A pre-emergence, giant foxtail; settings: after 13 d
Summary of the method: (§1)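 Pots of soil sown, sprayed at day 1 post-sowing: test compound at 15.625/62.5/250 g/ha in acetone:water 1:1 + 0.5% Tween 20. Glasshouse 24/16° C., 14 h light, 65% RH, watering twice daily. Readout: % damage after 13 d.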

[2] = tested on: velvetleaf (Abutilon theophrasti, ABUTH); test: Test A pre-emergence, velvetleaf; settings: after 13 d
Summary of the method: as §1

corn (Zea mays, ZEAMX) = test: Test A post-emergence, corn; settings: after 13 d
Summary of the method: (§2)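 Plants were grown 8 d in a glasshouse (24/16° C day/night, 14 h light, 65% humidity), then sprayed post-emergence at 15.625, 62.5 or 250 g/ha in acetone/water (50:50) with 0.5% Tween 20. Damage was scored visually after 13 d (0 = none, 100 = total).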

[3] = tested on: giant foxtail (Setaria faberi, SETFA); test: Test A post-emergence, giant foxtail; settings: after 13 d
Summary of the method: as §2

[4] = tested on: barnyardgrass (Echinochloa crus-galli, ECHCG); test: Test A post-emergence, barnyardgrass; settings: after 13 d
Summary of the method: as §2

[5] = tested on: ivy-leaved morning glory (Ipomoea hederacea, IPOHE); test: Test A post-emergence, ivy-leaved morning glory; settings: after 13 d
Summary of the method: as §2

wheat = test: Test D pre-emergence, wheat seed treated with a herbicide safener; settings: 100=total damage, 0=no damage
Protocol: A formulation containing 50 g/L of the test chemical was prepared by dissolving the active ingredient in a mixture of organic solvents and emulsifier, details of which are provided in the table. This formulation was then mixed with a small, variable amount of acetone to aid dissolution, before addition of a 0.2% v/v aqueous solution of an adjuvant, as the aqueous diluent, to form an aqueous spray solution which contains a predetermined concentration of the active ingredient.
This aqueous spray solution was then sprayed onto plants including maize and wheat that had been seed treated with a herbicide safener, after one day's cultivation (for pre-emergence) or after about 12 days' cultivation (for post-emergence). The plants were grown from seeds sown in standard soil, placed in a glasshouse under controlled conditions (at 24/18° C. or 20/16° C., day/night; 16 h light; 65% humidity). After spray application the plants were then grown in a glasshouse under the same conditions and watered twice daily. After 15 d for post-emergence and 20 DAA for pre-emergence the test was evaluated (100=total damage to plant; 0=no damage to plant).

Structure (SMILES)	damage to plant (100=total damage; 0=no damage) SETFA ([1]; Pre-Emergence at 15.625 g/ha)	damage to plant (100=total damage; 0=no damage) SETFA ([1]; Pre-Emergence at 62.5 g/ha)	damage to plant (100=total damage; 0=no damage) SETFA ([1]; Pre-Emergence at 250 g/ha)	damage to plant (100=total damage; 0=no damage) ABUTH ([2]; Pre-Emergence at 15.625 g/ha)	damage to plant (100=total damage; 0=no damage) ABUTH ([2]; Pre-Emergence at 62.5 g/ha)	damage to plant (100=total damage; 0=no damage) ABUTH ([2]; Pre-Emergence at 250 g/ha)	damage to plant (100=total damage; 0=no damage) ZEAMX (corn (Zea mays, ZEAMX); Post-Emergence at 62.5 g/ha)	damage to plant (100=total damage; 0=no damage) ZEAMX (corn (Zea mays, ZEAMX); Post-Emergence at 250 g/ha)	damage to plant (100=total damage; 0=no damage) SETFA ([3]; Post-Emergence at 62.5 g/ha)	damage to plant (100=total damage; 0=no damage) SETFA ([3]; Post-Emergence at 250 g/ha)	damage to plant (100=total damage; 0=no damage) ECHCG ([4]; Post-Emergence at 62.5 g/ha)	damage to plant (100=total damage; 0=no damage) ECHCG ([4]; Post-Emergence at 250 g/ha)	damage to plant (100=total damage; 0=no damage) IPOHE ([5]; Post-Emergence at 62.5 g/ha)	damage to plant (100=total damage; 0=no damage) IPOHE ([5]; Post-Emergence at 250 g/ha)	damage to plant, TRZAW (wheat; rate 15, 20 DAA)	damage to plant, TRZAW (wheat; rate 30, 20 DAA)	damage to plant, TRZAW (wheat; rate 60, 20 DAA)	damage to plant, TRZAW (wheat; rate 130, 20 DAA)	damage to plant, TRZAW (wheat; rate 250, 20 DAA)	damage to plant, TRZAW (wheat; rate 500, 20 DAA)	further results
CN1CC(c2cnn(C)c2C(F)(F)F)C(C(=O)Nc2cccc(F)c2F)C1=O (racemic) [Compound 25]	80	90	100	0	10	40	20	30	70	80	70	80	40	40	0	0	0	0	0	0	damage to plant (100=total damage; 0=no damage) ZEAMX (corn (Zea mays, ZEAMX); Post-Emergence at 15.625 g/ha): 0; damage to plant (100=total damage; 0=no damage) SETFA ([3]; Post-Emergence at 15.625 g/ha): 30; damage to plant (100=total damage; 0=no damage) ECHCG ([4]; Post-Emergence at 15.625 g/ha): 30; damage to plant (100=total damage; 0=no damage) IPOHE ([5]; Post-Emergence at 15.625 g/ha): 10
CN1CC(c2cc(C(F)(F)F)n(C)n2)C(C(=O)Nc2ccc(F)cc2C(C)(F)F)C1=O (racemic) [Compound 26]		90	90		0	0	60	80	80	90	70	90	20	50	0	0	0	10	70	30	
CN1CC(c2cc(C(F)(F)F)n(C)n2)C(C(=O)Nc2cccc(F)c2F)C1=O (racemic) [Compound 3]	90	90	90	0	0	10	50	80	90	90	90	90	0	0	0	0	0	0	0	60	damage to plant (100=total damage; 0=no damage) ZEAMX (corn (Zea mays, ZEAMX); Post-Emergence at 15.625 g/ha): 0; damage to plant (100=total damage; 0=no damage) SETFA ([3]; Post-Emergence at 15.625 g/ha): 80; damage to plant (100=total damage; 0=no damage) ECHCG ([4]; Post-Emergence at 15.625 g/ha): 90; damage to plant (100=total damage; 0=no damage) IPOHE ([5]; Post-Emergence at 15.625 g/ha): 0
